In ChEMBL document CHEMBL1158988, “Cytotoxic norditerpene lactones from Ileostylus micranthus” (J Nat Prod, 1991):
≈ marks a conversion by molar mass, not a printed value.

Test system: P388
Assay: Cytotoxicity against mouse P388 cells
Format: functional, cell-based

Compound	IC50
CC(C)[C@H]1OC(=O)C=C2[C@@]13O[C@@H]3[C@H]1OC(=O)[C@@]3(C)C[C@H](O)C[C@@]2(C)[C@@H]13	0.06 µg/mL (≈ 0.172 µM)
CC(C)[C@H]1OC(=O)C=C2C1=C[C@H]1OC(=O)[C@@]3(C)C[C@H](O)C[C@@]2(C)[C@@H]13	0.06 µg/mL (≈ 0.181 µM)
CC(C)c1oc(=O)cc2c1[C@@H](O)[C@H]1OC(=O)[C@@]3(C)C[C@H]4O[C@H]4[C@@]2(C)[C@@H]13	0.65 µg/mL (≈ 1.88 µM)
CC(C)c1oc(=O)cc2c1[C@@H](O)[C@H]1OC(=O)[C@@]3(C)[C@@H](O)[C@H]4O[C@H]4[C@@]2(C)[C@@H]13 [NAGILACTONE C]	0.33 µg/mL (≈ 0.911 µM)
C=C[C@H]1OC(=O)C=C2C1=C[C@H]1OC(=O)[C@]3(C)[C@H]1[C@]2(C)[C@H]1O[C@H]1[C@@H]3O [PODOLACTONE E]	< 0.01 µg/mL
